{
  "source": "paper PMC5218480",
  "about": "(PLoS ONE, 2017)",
  "tested_on": "MV-4-11 cells",
  "assay": "Gene expression microarray analysis (Affymetrix PrimeView) and GSEA",
  "type": "cell-based, human",
  "set-up": "RFU PODN (11730768_x_at) / Fold change /veh PODN (11730768_x_at) / RFU LINC00158 (11744669_a_at) / Fold change /veh LINC00158 (11744669_a_at) / RFU DUSP10 (11751237_a_at) / Fold change /veh DUSP10 (11751237_a_at) / RFU ID3 (11757404_x_at) / Fold change /veh ID3 (11757404_x_at) / RFU PLEKHG5 (11737974_s_at) / Fold change /veh PLEKHG5 (11737974_s_at) / RFU LRRC4B (11730491_at) / Fold change /veh LRRC4B (11730491_at) / RFU GIMAP4 (11747438_a_at) / Fold change /veh GIMAP4 (11747438_a_at) / RFU KRT8 (11758183_x_at) / Fold change /veh KRT8 (11758183_x_at) / RFU CNN1 (11734310_a_at) / Fold change /veh CNN1 (11734310_a_at) / RFU VPS37D (11726825_at) / Fold change /veh VPS37D (11726825_at) / RFU C10orf10 (11716522_x_at) / Fold change /veh C10orf10 (11716522_x_at) / RFU KIR2DL2 /// KIR2DL4 /// KIR2DL5A /// KIR2DL5B /// KIR2DS1 /// KIR2DS2 /// KIR2DS3 /// KIR2DS4 /// KIR3DL3 /// KIR3DL3 /// KIR3DS1 (11738374_at) / Fold change /veh KIR2DL2 /// KIR2DL4 /// KIR2DL5A /// KIR2DL5B /// KIR2DS1 /// KIR2DS2 /// KIR2DS3 /// KIR2DS4 /// KIR3DL3 /// KIR3DL3 /// KIR3DS1 (11738374_at) / RFU C1QL1 (11718748_at) / Fold change /veh C1QL1 (11718748_at) / RFU TMPRSS4 (11747572_a_at) / Fold change /veh TMPRSS4 (11747572_a_at) / RFU HAMP (11756126_x_at) / Fold change /veh HAMP (11756126_x_at) / RFU RNFT2 (11725882_a_at) / Fold change /veh RNFT2 (11725882_a_at) / RFU NR4A2 (11747474_a_at) / Fold change /veh NR4A2 (11747474_a_at) / RFU ABCC12 (11746883_a_at) / Fold change /veh ABCC12 (11746883_a_at) / RFU TMEM136 (11760407_x_at) / Fold change /veh TMEM136 (11760407_x_at) / RFU CLDN22 /// WWC2 (11732394_at) / Fold change /veh CLDN22 /// WWC2 (11732394_at) / RFU HLA-DPB1 (11760878_x_at) / Fold change /veh HLA-DPB1 (11760878_x_at) / RFU SPINT1 (11716480_a_at) / Fold change /veh SPINT1 (11716480_a_at) / RFU GAP43 (11754022_s_at) / Fold change /veh GAP43 (11754022_s_at) / RFU A4GNT (11735810_at) / Fold change /veh A4GNT (11735810_at) / RFU PRB3 (11715151_x_at) / Fold change /veh PRB3 (11715151_x_at) / RFU TUBB4B (11761932_at) / Fold change /veh TUBB4B (11761932_at) / RFU CAPN14 (11732068_a_at) / Fold change /veh CAPN14 (11732068_a_at) / RFU TMCC2 (11721928_a_at) / Fold change /veh TMCC2 (11721928_a_at) / RFU IRGQ (11745062_a_at) / Fold change /veh IRGQ (11745062_a_at) / RFU FAM174B (11720279_a_at) / Fold change /veh FAM174B (11720279_a_at) / RFU TMPRSS4 (11748680_a_at) / Fold change /veh TMPRSS4 (11748680_a_at) / RFU FAM212B (11763350_a_at) / Fold change /veh FAM212B (11763350_a_at) / RFU PLEKHG5 (11743358_a_at) / Fold change /veh PLEKHG5 (11743358_a_at) / RFU ZSCAN30 (11745921_a_at) / Fold change /veh ZSCAN30 (11745921_a_at) / RFU CMKLR1 (11741424_a_at) / Fold change /veh CMKLR1 (11741424_a_at) / RFU LOC101060620 /// MAPK8IP1 (11723275_at) / Fold change /veh LOC101060620 /// MAPK8IP1 (11723275_at) / RFU SPTSSB (11747773_x_at) / Fold change /veh SPTSSB (11747773_x_at) / RFU PRSS12 (11739890_at) / Fold change /veh PRSS12 (11739890_at) / RFU BIN1 (11741810_x_at) / Fold change /veh BIN1 (11741810_x_at) / RFU WNT11 (11732464_a_at) / Fold change /veh WNT11 (11732464_a_at) / RFU C10orf10 (11716521_a_at) / Fold change /veh C10orf10 (11716521_a_at) / RFU C5orf56 (11738089_at) / Fold change /veh C5orf56 (11738089_at) / RFU CYB561 (11721691_x_at) / Fold change /veh CYB561 (11721691_x_at) / RFU ANKRD19P (11752326_a_at) / Fold change /veh ANKRD19P (11752326_a_at) / RFU OR2T12 /// OR2T33 /// OR2T8 (11738714_s_at) / Fold change /veh OR2T12 /// OR2T33 /// OR2T8 (11738714_s_at) / RFU VCAN (11748164_a_at) / Fold change /veh VCAN (11748164_a_at) / RFU JSRP1 (11732532_at) / Fold change /veh JSRP1 (11732532_at) / RFU KRTAP10-11 (11738290_x_at) / Fold change /veh KRTAP10-11 (11738290_x_at) / RFU MYO3A (11730013_a_at) / Fold change /veh MYO3A (11730013_a_at) / RFU EBF3 (11725865_a_at) / Fold change /veh EBF3 (11725865_a_at) / RFU CAMK2N1 (11719241_x_at) / Fold change /veh CAMK2N1 (11719241_x_at) / RFU C5orf56 (11738088_a_at) / Fold change /veh C5orf56 (11738088_a_at) / RFU OLFML3 (11715873_a_at) / Fold change /veh OLFML3 (11715873_a_at) / RFU LOC100653217 /// NTM (11731650_a_at) / Fold change /veh LOC100653217 /// NTM (11731650_a_at) / RFU MAPK11 (11762145_a_at) / Fold change /veh MAPK11 (11762145_a_at) / RFU FIZ1 (11724087_x_at) / Fold change /veh FIZ1 (11724087_x_at) / RFU OASL (11726364_x_at) / Fold change /veh OASL (11726364_x_at) / RFU SOX15 (11748057_x_at) / Fold change /veh SOX15 (11748057_x_at) / RFU CD79A (11719716_a_at) / Fold change /veh CD79A (11719716_a_at) / RFU HIST1H1D (11736915_at) / Fold change /veh HIST1H1D (11736915_at) / RFU CASKIN2 (11723855_a_at) / Fold change /veh CASKIN2 (11723855_a_at) / RFU LOC730098 (11760151_x_at) / Fold change /veh LOC730098 (11760151_x_at) / RFU OR4N2 (11742367_at) / Fold change /veh OR4N2 (11742367_at) / RFU PRRT2 (11749266_a_at) / Fold change /veh PRRT2 (11749266_a_at) / RFU SNX32 (11753110_a_at) / Fold change /veh SNX32 (11753110_a_at) / RFU CDHR5 (11726645_a_at) / Fold change /veh CDHR5 (11726645_a_at) / RFU RCAN1 (11760418_a_at) / Fold change /veh RCAN1 (11760418_a_at) / RFU FAM167A (11723789_a_at) / Fold change /veh FAM167A (11723789_a_at) / RFU FAM26E (11764081_at) / Fold change /veh FAM26E (11764081_at) / RFU ISYNA1 (11749810_s_at) / Fold change /veh ISYNA1 (11749810_s_at) / RFU ACY1 (11761880_at) / Fold change /veh ACY1 (11761880_at) / RFU 11764098_at / Fold change /veh 11764098_at / RFU SAMD14 (11745864_x_at) / Fold change /veh SAMD14 (11745864_x_at) / RFU NPB (11741838_a_at) / Fold change /veh NPB (11741838_a_at) / RFU TMPRSS6 (11731388_a_at) / Fold change /veh TMPRSS6 (11731388_a_at) / RFU KRTAP10-2 (11738614_at) / Fold change /veh KRTAP10-2 (11738614_at) / RFU ARHGAP8 /// PRR5-ARHGAP8 (11727945_x_at) / Fold change /veh ARHGAP8 /// PRR5-ARHGAP8 (11727945_x_at) / RFU KRTAP5-7 /// NADSYN1 (11734609_at) / Fold change /veh KRTAP5-7 /// NADSYN1 (11734609_at) / RFU RASL12 (11751679_a_at) / Fold change /veh RASL12 (11751679_a_at) / RFU CDKN2B (11736163_a_at) / Fold change /veh CDKN2B (11736163_a_at) / RFU PRF1 (11729649_at) / Fold change /veh PRF1 (11729649_at) / RFU, ZNF638 /// ZNF638-IT1 / Fold change vs veh, ZNF638 /// ZNF638-IT1 / RFU, PANK3 / Fold change vs veh, PANK3 / RFU, SH3YL1 / Fold change vs veh, SH3YL1 / RFU, ZEB2 / Fold change vs veh, ZEB2 / RFU, NRIP1 / Fold change vs veh, NRIP1 / RFU, PTTG1IP / Fold change vs veh, PTTG1IP / RFU, CAPN2 / Fold change vs veh, CAPN2 / RFU, MED14 / Fold change vs veh, MED14 / RFU, SNORA58 / Fold change vs veh, SNORA58 / RFU, C1orf63 / Fold change vs veh, C1orf63 / RFU, LRRFIP1 / Fold change vs veh, LRRFIP1 / RFU, NDUFAF7 / Fold change vs veh, NDUFAF7 / RFU, SLC12A2 / Fold change vs veh, SLC12A2 / RFU, IBTK / Fold change vs veh, IBTK / RFU, ESF1 / Fold change vs veh, ESF1 / Fold change vs veh, TMEM50B / RFU, TAOK1 / Fold change vs veh, TAOK1 / RFU, ACBD3 / Fold change vs veh, ACBD3 / RFU, TMA16 / Fold change vs veh, TMA16 / RFU, RWDD3 / Fold change vs veh, RWDD3 / RFU, BCAT1 / Fold change vs veh, BCAT1 / RFU, EDEM3 / Fold change vs veh, EDEM3 / RFU, TMEM33 / Fold change vs veh, TMEM33 / RFU, WDR75 / Fold change vs veh, WDR75 / RFU, AHCTF1 / Fold change vs veh, AHCTF1 / RFU, TFRC / Fold change vs veh, TFRC / RFU, ZDHHC17 / Fold change vs veh, ZDHHC17 / RFU, NOM1 / Fold change vs veh, NOM1 / RFU, ARL8B / Fold change vs veh, ARL8B / RFU, ZBTB11 / Fold change vs veh, ZBTB11 / RFU, TAMM41 / Fold change vs veh, TAMM41 / RFU, KIAA1704 /// LOC100996395 / Fold change vs veh, KIAA1704 /// LOC100996395 / RFU, ING1 / Fold change vs veh, ING1 / RFU, TRMT61B / Fold change vs veh, TRMT61B / RFU, FUBP3 / Fold change vs veh, FUBP3 / RFU, TP53 / Fold change vs veh, TP53 / RFU, TNKS2 / Fold change vs veh, TNKS2 / RFU, ZFP14 / Fold change vs veh, ZFP14 / RFU, ACTR2 / Fold change vs veh, ACTR2 / RFU, PPP3R1 / Fold change vs veh, PPP3R1 / RFU, PIK3R1 / Fold change vs veh, PIK3R1 / RFU, HNRNPA1 / Fold change vs veh, HNRNPA1 / RFU, RNF170 / Fold change vs veh, RNF170 / RFU, ZNF28 / Fold change vs veh, ZNF28 / RFU, RNGTT / Fold change vs veh, RNGTT / RFU, OGT / Fold change vs veh, OGT / RFU, BRD1 / Fold change vs veh, BRD1 / RFU, MARS / Fold change vs veh, MARS / RFU, ZNF655 / Fold change vs veh, ZNF655 / RFU, FAHD1 / Fold change vs veh, FAHD1 / RFU, BDP1 / Fold change vs veh, BDP1 / RFU, LRRCC1 / Fold change vs veh, LRRCC1 / RFU, ARID1A / Fold change vs veh, ARID1A / RFU, ZNF146 / Fold change vs veh, ZNF146 / RFU, ZNF330 / Fold change vs veh, ZNF330 / RFU, GPN3 / Fold change vs veh, GPN3 / RFU, C9orf123 / Fold change vs veh, C9orf123 / RFU, N4BP2L2 / Fold change vs veh, N4BP2L2 / RFU, ARFIP1 / Fold change vs veh, ARFIP1 / RFU, FAM179B / Fold change vs veh, FAM179B / RFU, BCL10 / Fold change vs veh, BCL10 / RFU, UHRF1BP1L / Fold change vs veh, UHRF1BP1L / RFU, BET1 / Fold change vs veh, BET1 / RFU, CNOT2 / Fold change vs veh, CNOT2 / RFU, ZNF268 / Fold change vs veh, ZNF268 / Fold change vs veh, ZNF507 / RFU, DGCR2 / Fold change vs veh, DGCR2 / RFU, WDSUB1 / Fold change vs veh, WDSUB1 / Fold change vs veh, HSP90B1 /// MIR3652 / RFU, ADSS / Fold change vs veh, ADSS / RFU, GK / Fold change vs veh, GK / RFU, ZNF148 / Fold change vs veh, ZNF148 / RFU, TAF9 / Fold change vs veh, TAF9 / RFU, SLC1A5 / Fold change vs veh, SLC1A5 / RFU, SLMO2 / Fold change vs veh, SLMO2 / RFU, ABCC4 / Fold change vs veh, ABCC4 / RFU, LOC101060439 /// RAP1B / Fold change vs veh, LOC101060439 /// RAP1B / RFU, RFX7 / Fold change vs veh, RFX7 / RFU, GTPBP10 / Fold change vs veh, GTPBP10 / RFU, CNEP1R1 / Fold change vs veh, CNEP1R1 / RFU, BIVM-ERCC5 /// ERCC5 / Fold change vs veh, BIVM-ERCC5 /// ERCC5 / RFU, ILF3 / Fold change vs veh, ILF3 / RFU 11762660_at / Fold change /veh 11762660_at / RFU VCAN (11757783_s_at) / Fold change /veh VCAN (11757783_s_at) / RFU DDX43 (11728927_at) / Fold change /veh DDX43 (11728927_at) / RFU KRT8 (11758188_x_at) / Fold change /veh KRT8 (11758188_x_at) / RFU NKD1 (11759106_at) / Fold change /veh NKD1 (11759106_at) / RFU SRD5A1 (11742802_a_at) / Fold change /veh SRD5A1 (11742802_a_at) / RFU TPSAB1 /// TPSB2 (11721975_s_at) / Fold change /veh TPSAB1 /// TPSB2 (11721975_s_at) / RFU GSTM3 (11746129_a_at) / Fold change /veh GSTM3 (11746129_a_at) / RFU IL23R (11737362_x_at) / Fold change /veh IL23R (11737362_x_at) / RFU TMEM51 (11727254_a_at) / Fold change /veh TMEM51 (11727254_a_at) / RFU PIWIL2 (11732686_x_at) / Fold change /veh PIWIL2 (11732686_x_at) / RFU ORM1 (11744905_x_at) / Fold change /veh ORM1 (11744905_x_at) / RFU CCDC152 (11743942_at) / Fold change /veh CCDC152 (11743942_at) / RFU ECM1 (11717891_a_at) / Fold change /veh ECM1 (11717891_a_at) / RFU IL23R (11748794_a_at) / Fold change /veh IL23R (11748794_a_at) / RFU TNFAIP8L3 (11732012_x_at) / Fold change /veh TNFAIP8L3 (11732012_x_at) / RFU MBOAT4 (11741988_at) / Fold change /veh MBOAT4 (11741988_at) / RFU 11764193_at / Fold change /veh 11764193_at / RFU TMEM53 (11763286_at) / Fold change /veh TMEM53 (11763286_at) / RFU MAGEB2 (11727129_at) / Fold change /veh MAGEB2 (11727129_at) / RFU TMEM200A (11744735_a_at) / Fold change /veh TMEM200A (11744735_a_at) / RFU CCDC152 (11751479_a_at) / Fold change /veh CCDC152 (11751479_a_at) / RFU FAM211A (11726209_a_at) / Fold change /veh FAM211A (11726209_a_at) / RFU RGS16 (11746705_a_at) / Fold change /veh RGS16 (11746705_a_at) / RFU VCAN (11755009_s_at) / Fold change /veh VCAN (11755009_s_at) / RFU RHOB (11743442_s_at) / Fold change /veh RHOB (11743442_s_at) / RFU RGS16 (11720943_a_at) / Fold change /veh RGS16 (11720943_a_at) / RFU RGS16 (11720944_at) / Fold change /veh RGS16 (11720944_at) / RFU, VPS4B / Fold change vs veh, VPS4B / RFU, CREB1 / Fold change vs veh, CREB1 / RFU, DNAJC13 / Fold change vs veh, DNAJC13 / RFU, GNAQ / Fold change vs veh, GNAQ / RFU, CDK5R1 / Fold change vs veh, CDK5R1 / RFU, ZRANB3 / Fold change vs veh, ZRANB3 / RFU, CUL4A / Fold change vs veh, CUL4A / RFU, CCNY / Fold change vs veh, CCNY / RFU, UFL1 / Fold change vs veh, UFL1 / RFU, COG3 / Fold change vs veh, COG3 / RFU, DIAPH2 / Fold change vs veh, DIAPH2 / RFU, SKA2 / Fold change vs veh, SKA2 / RFU, AFF3 / Fold change vs veh, AFF3 / RFU, LMF1 / Fold change vs veh, LMF1 / RFU, IPO11 / Fold change vs veh, IPO11 / RFU, DFFB / Fold change vs veh, DFFB / RFU, FOXP1 / Fold change vs veh, FOXP1 / RFU, CARD8 / Fold change vs veh, CARD8 / RFU, STRN3 / Fold change vs veh, STRN3 / RFU, ADK / Fold change vs veh, ADK / RFU, RASSF2 / Fold change vs veh, RASSF2 / RFU, WIPF1 / Fold change vs veh, WIPF1 / RFU, LARP1B / Fold change vs veh, LARP1B / RFU, RASA1 / Fold change vs veh, RASA1 / RFU, RB1 / Fold change vs veh, RB1 / RFU, PPFIA1 / Fold change vs veh, PPFIA1 / RFU, MAT2A / Fold change vs veh, MAT2A / RFU, CCT5 / Fold change vs veh, CCT5 / RFU, WDR92 / Fold change vs veh, WDR92 / RFU, CUX1 / Fold change vs veh, CUX1 / RFU, TTC7A / Fold change vs veh, TTC7A / RFU, TMEM135 / Fold change vs veh, TMEM135 / RFU, DEPTOR / Fold change vs veh, DEPTOR / RFU, CPM / Fold change vs veh, CPM / RFU, DNAJB6 / Fold change vs veh, DNAJB6 / RFU, CACNA2D3 / Fold change vs veh, CACNA2D3 / RFU, DTX4 / Fold change vs veh, DTX4 / RFU, TFCP2 / Fold change vs veh, TFCP2 / RFU, GMCL1 /// GMCL1P1 / Fold change vs veh, GMCL1 /// GMCL1P1 / RFU, AEBP2 / Fold change vs veh, AEBP2 / RFU, SNHG1 /// SNORD22 /// SNORD25 /// SNORD26 /// SNORD27 /// SNORD28 /// SNORD29 /// SNORD31 / Fold change vs veh, SNHG1 /// SNORD22 /// SNORD25 /// SNORD26 /// SNORD27 /// SNORD28 /// SNORD29 /// SNORD31 / Fold change (Aza/veh), C12orf56 (ProbeSet 11735607_a_at) / Fold change (ACY-1035/veh), C12orf56 (ProbeSet 11735607_a_at) / Fold change (Aza/veh), FGFR1OP (ProbeSet 11751329_s_at) / Fold change (ACY-1035/veh), FGFR1OP (ProbeSet 11751329_s_at) / Fold change (Aza/veh), VPS36 (ProbeSet 11739960_a_at) / Fold change (ACY-1035/veh), VPS36 (ProbeSet 11739960_a_at) / RFU SYPL1 (11715823_x_at) / Fold change /veh SYPL1 (11715823_x_at) / RFU IGFBP7 (11715501_s_at) / Fold change /veh IGFBP7 (11715501_s_at) / RFU REEP3 (11722064_at) / Fold change /veh REEP3 (11722064_at) / RFU IGLL1 (11728026_x_at) / Fold change /veh IGLL1 (11728026_x_at): dose or concentration left out as unconfirmed",
  "conditions": "MV-4-11 cells, 48 hours",
  "data": [
    {"molecule": "Nc1ccc(-c2cccs2)cc1NC(=O)c1ccc2c(c1)cc(C1CC1)n2CCN1CCOCC1", "note": "[ACY-1035]", "values": [
      {"measurement": "Fold change /veh HIST1H1D (11736915_at)", "result": 0.94}
    ]}
  ]
}
